Laboratory results as given in the CheMixHub ionic liquid set.

Test: xn = mol fraction of the nth substance listed

CC[n+]1ccn(C)c1.COS(=O)(=O)[O-] + CCO
viscosity [mPa·s], 101 kPa
Conditions | 283.15 K | 293.15 K | 303.15 K | 313.15 K | 323.15 K
x1 = 0.0561 | 2.15 | 1.77 | 1.48 | 1.24 | 1.04
x1 = 0.112 | 2.99 | 2.44 | 2.02 | 1.7 | 1.44
x1 = 0.213 | 5.56 | 4.37 | 3.53 | 2.81 | 2.36
x1 = 0.3285 | 9.85 | 7.62 | 6.01 | 4.85 | 3.98
x1 = 0.356 | 11.14 | 8.61 | 6.78 | 5.44 | 4.44
x1 = 0.525 | 23.46 | 17.1 | 12.99 | 10.15 | 8.15
x1 = 0.632 | 38.01 | 26.49 | 19.73 | 14.91 | 11.58
x1 = 0.7294 | 55 | 36.84 | 26.04 | 19.5 | 15
x1 = 0.8202 | 76.5 | 49.25 | 33.81 | 24.48 | 18.59
x1 = 0.9108 | 106.9 | 66 | 43.92 | 30.93 | 22.87
x1 = 0.9556 | 124.7 | 75.7 | 49.57 | 34.48 | 25.22
x1 = 1 | 141 | 84.1 | 57.9 | 39.54 | 28.33

CC[n+]1ccn(C)c1.COS(=O)(=O)[O-] + CCCO
viscosity [mPa·s], 101 kPa
Conditions | 283.15 K | 293.15 K | 303.15 K | 313.15 K | 323.15 K
x1 = 0.0562 | 3.83 | 3 | 2.38 | 1.93 | 1.58
x1 = 0.1123 | 5.02 | 3.88 | 3.06 | 2.47 | 2.02
x1 = 0.2201 | 8.55 | 6.43 | 4.9 | 3.82 | 3.15
x1 = 0.3272 | 12.73 | 9.53 | 7.27 | 5.71 | 4.62
x1 = 0.4282 | 19.32 | 14.17 | 10.7 | 8.3 | 6.6
x1 = 0.5272 | 29.1 | 20.65 | 15.24 | 11.61 | 9.06
x1 = 0.6285 | 40.72 | 27.29 | 19.7 | 14.77 | 11.43
x1 = 0.7255 | 56.5 | 37.58 | 27.45 | 20.14 | 15.3
x1 = 0.8203 | 82.4 | 52.7 | 35.86 | 26.65 | 19.78
x1 = 0.9091 | 104.9 | 63.6 | 42.77 | 30.19 | 22.2
x1 = 0.954 | 127.2 | 77 | 50.3 | 35.02 | 25.63
x1 = 1 | 141 | 84.1 | 57.9 | 39.54 | 28.33

CCCCCC[n+]1ccn(C)c1.O=S(=O)([N-]S(=O)(=O)C(F)(F)F)C(F)(F)F + CN(C)C=O
298.15 K, 100 kPa
Conditions | electrical conductivity [S/m]
x1 = 0.06572 | 0.9
x1 = 0.09821 | 1.1
x1 = 0.1404 | 1.2
x1 = 0.1968 | 1.4
x1 = 0.275 | 1.2

CCC[P+](c1ccccc1)(c1ccccc1)c1ccccc1.[Br-] + OCCO
100 kPa, x2 = 0.9756
Conditions | viscosity [mPa·s]
303.15 K | 20.5
313.15 K | 17.1
323.15 K | 14
333.15 K | 11.6
343.15 K | 10
353.15 K | 9.1

CCCCCCCCOS(=O)(=O)[O-].CC[n+]1ccn(C)c1 + O + O=S(=O)([O-])[O-].[Li+].[Li+]
101 kPa, frequency 0.0005 MHz, x2 = 0.8284, x3 = 0.003275
Conditions | electrical conductivity [S/m]
283.15 K | 0.479
285.15 K | 0.518
287.15 K | 0.561
288.15 K | 0.582
289.15 K | 0.605
291.15 K | 0.649
293.15 K | 0.698
298.15 K | 0.83
303.15 K | 0.975
313.15 K | 1.31
323.15 K | 1.68
333.15 K | 2.1
343.15 K | 2.62
348.15 K | 2.87
358.15 K | 3.41
363.15 K | 3.68

101 kPa, x2 = 0.8284, x3 = 0.003275
Conditions | viscosity [mPa·s]
293.15 K | 101
296.15 K | 85.2
298.15 K | 76.4
303.15 K | 58.9
308.15 K | 46.1
318.15 K | 29.59
328.15 K | 19.97
338.15 K | 14.04

CCCCCC[n+]1ccn(C)c1.O=S(=O)([N-]S(=O)(=O)C(F)(F)F)C(F)(F)F + O=C1CCCO1
100 kPa, frequency 0.005 MHz
Conditions | electrical conductivity [S/m]
293.15 K, x2 = 0.2973 | 0.296
293.15 K, x2 = 0.9001 | 1.11
293.15 K, x2 = 0.9493 | 0.746
298.15 K, x2 = 0.1076 | 0.261
298.15 K, x2 = 0.9493 | 0.819
303.15 K, x2 = 0 | 0.273
303.15 K, x2 = 0.4956 | 0.657
303.15 K, x2 = 0.9001 | 1.34
308.15 K, x2 = 0 | 0.33
308.15 K, x2 = 0.1076 | 0.387
308.15 K, x2 = 0.2973 | 0.514
308.15 K, x2 = 0.9001 | 1.45
313.15 K, x2 = 0.1076 | 0.459
313.15 K, x2 = 0.2973 | 0.596
313.15 K, x2 = 0.6996 | 1.31
313.15 K, x2 = 0.8456 | 1.61
318.15 K, x2 = 0.2973 | 0.687
318.15 K, x2 = 0.8456 | 1.73
318.15 K, x2 = 0.9493 | 1.11
323.15 K, x2 = 0 | 0.553
323.15 K, x2 = 0.1076 | 0.624
323.15 K, x2 = 0.2973 | 0.788
323.15 K, x2 = 0.8001 | 1.85
323.15 K, x2 = 0.8456 | 1.88

CCCCCCCCOS(=O)(=O)[O-].CC[n+]1ccn(C)c1 + O + O=S(=O)([O-])[O-].[K+].[K+]
101 kPa, frequency 0.0005 MHz, x2 = 0.7992, x3 = 0.000271
Conditions | electrical conductivity [S/m]
283.15 K | 0.565
285.15 K | 0.611
288.15 K | 0.685
291.15 K | 0.763
293.15 K | 0.818
298.15 K | 0.965
303.15 K | 1.13
313.15 K | 1.49
323.15 K | 1.91
333.15 K | 2.43
343.15 K | 2.94
353.15 K | 3.49
358.15 K | 3.81
363.15 K | 4.13

101 kPa, x2 = 0.7992, x3 = 0.000271
Conditions | viscosity [mPa·s]
298.15 K | 70.4
303.15 K | 54.1
308.15 K | 42.26
318.15 K | 26.98
328.15 K | 18.12
338.15 K | 12.69

O=C1c2ccccc2C(=O)C1(O)O + CCCC[N+](CCCC)(CCCC)CCCC.O=S(=O)([O-])O
100 kPa, x2 = 0.571
Conditions | electrical conductivity [S/m] | viscosity [mPa·s]
293.15 K | 2.5e-06 | –
298.15 K | 7.8e-06 | –
303.15 K | 2.49e-05 | –
308.15 K | 6.58e-05 | –
313.15 K | 0.000153 | –
318.15 K | 0.000325 | –
323.15 K | 0.000614 | –
328.15 K | 0.00109 | 27000
333.15 K | 0.00183 | –
343.15 K | – | 6500

CC[n+]1ccn(CCOC)c1.O=S(=O)([O-])C(F)(F)F + CC(C)O
viscosity [mPa·s], 101 kPa
Conditions | x1 = 0.0997 | x1 = 0.2004 | x1 = 0.3004 | x1 = 0.4003 | x1 = 0.5004 | x1 = 0.601 | x1 = 0.7 | x1 = 0.8 | x1 = 0.9 | x1 = 1
288.15 K | 4.72 | 7.33 | 10.86 | 16.19 | 21.8 | 33.6 | 47.3 | 64.2 | 85.2 | 121
293.15 K | 4.047 | 6.23 | 9.17 | 13.53 | 18.15 | 27.6 | 38 | 51.3 | 65.2 | 92.5
298.15 K | 3.489 | 5.36 | 7.83 | 11.45 | 15.16 | 22.88 | 31.09 | 41.4 | 52.2 | 72.5
303.15 K | 3.03 | 4.64 | 6.75 | 9.8 | 12.85 | 19.27 | 25.81 | 33.89 | 42.7 | 57.9
308.15 K | 2.654 | 4.06 | 5.87 | 8.47 | 11.07 | 16.64 | 21.71 | 28.27 | 35.58 | 47.3
313.15 K | 2.336 | 3.599 | 5.15 | 7.38 | 9.64 | 14.32 | 18.62 | 23.79 | 30.09 | 39
318.15 K | 2.068 | 3.192 | 4.55 | 6.49 | 8.54 | 12.42 | 16.2 | 20.22 | 25.83 | 32.59

CCCCCC[n+]1ccn(C)c1.[Br-] + OC1OC[C@@H](O)[C@H](O)[C@H]1O + O
298.15 K, 101 kPa
Conditions | viscosity [mPa·s]
x2 = 0, x1 = 0.001844 | 0.948
x2 = 0, x1 = 0.003654 | 1.005
x2 = 0, x1 = 0.005425 | 1.053
x2 = 0, x1 = 0.007153 | 1.101

CC[n+]1ccn(C)c1.COS(=O)(=O)[O-] + O
101 kPa
Conditions | viscosity [mPa·s]
288.15 K, x2 = 0.0023 | 137.7
288.15 K, x2 = 0.8948 | 4.861
298.15 K, x2 = 0.0023 | 83.9
298.15 K, x2 = 0.0887 | 80.2
308.15 K, x2 = 0.2235 | 42.26
308.15 K, x2 = 0.4163 | 24.36
308.15 K, x2 = 0.8948 | 2.817
318.15 K, x2 = 0.0023 | 37.81
328.15 K, x2 = 0.0023 | 27.34
338.15 K, x2 = 0.4163 | 10.89
338.15 K, x2 = 0.6106 | 5.924

CCCCCCCC(=O)[O-].c1c[nH+]c[nH]1 + CCO
101.3 kPa
Conditions | viscosity [mPa·s]
293.15 K, x2 = 0.1984 | 53.79
293.15 K, x2 = 0.301 | 40.4
293.15 K, x2 = 0.5999 | 14.5
298.15 K, x2 = 0.8989 | 2.949
303.15 K, x2 = 0.1043 | 45
303.15 K, x2 = 0.5999 | 12
303.15 K, x2 = 0.8989 | 2.686
313.15 K, x2 = 0 | 36.92
313.15 K, x2 = 0.301 | 21.5
313.15 K, x2 = 0.5999 | 9.9
313.15 K, x2 = 0.7006 | 6.9
318.15 K, x2 = 0.5999 | 9
318.15 K, x2 = 0.8989 | 2.125
